Experimental data published in US9889182B2, “Assisted enzyme replacement therapy” (The Regents of the University of California, priority 2009, dated 2018).
Marks after values point to notes of the source that are not given here.

Legend:
[1] = system: 10T1/2 cells; test: FACS cellular uptake of BODIPY conjugates in 10T1/2 cells; type: cell-based, mouse; conditions: for Mean Fluorescence Intensity of treated cells according to FACS, 10T1/2: 0.5 μM of each compound for 1 hr, average of 10,000 cells; for cellular uptake / cellular uptake compared to poly-Arg peptide BODIPY-Cys(Arg)9: FACS; for cellular uptake: slightly above autofluorescence of the cell; for cellular uptake compared to poly-Arg peptide BODIPY-Cys(Arg)9: Table 1
Procedure: (§1) 10T1/2 cells, an adherent non-transformed mouse fibroblast cell line, and HeLa cells, a common human cancer cell line, were purchased from ATCC and used before their 20th passage. Both cell lines were cultured in Dulbecco's modified eagle medium containing 10% fetal bovine serum at 37° C. in an 8% CO2 environment. For each experiment, cells were seeded onto 4 cm tissue culture plates (Nunc) and allowed to grow overnight to ˜80% confluency.
(§2) Compounds 1-5 identified in Table 1, below (0.5-1 μM), were added to each dish and incubated at 37° C./8% CO2 for 0.5-1 hr. Cells were then washed once in PBS, trypsinized with 500 μl ATV solution (Gibco) for 3 minutes, pelleted in a fixed angle centrifuge for 5 minutes at 5,000×G, then brought up in 1 mL PBS. Each sample was quickly (within 5 minutes) analyzed on a FACS VantageSE cell sorter (Becton-Dickinson) using the 488 nm argon/krypton laser line and a 530 nm band pass emission filter. 2,000-10,000 cells were counted per sample.

[2] = system: Wild-type CHO cells; test: Live-cell uptake of fluorescent guanidinoneomycin conjugate (streptavidin-Alexa-488), microscopy; type: cell-based, Chinese hamster; conditions: 0.4 M sucrose; 5 mM amiloride
Procedure: Microscopy—Cells were cultured on Lab-Tek chambered coverglass slides (Electron Microscopy Sciences) in F12 medium. After washing with PBS, cells were incubated for 1 h in 1 ml of 60 nM guanidinoneomycin coupled to streptavidin-Alexa-488 (Molecular Probes) at 37° C. Guanidinoneomycin-A488 was prepared by incubating 1 μM guanidinoneomycinbiotin with 6 μg of streptavidin-Alexa-488 in 1 ml of medium. Hoechst 33342 (2 μg/ml; Molecular Probes) was added to cells for the last 20 min of incubation. Cells were washed three times with F12 medium before live cell imaging. Microscopic images were acquired on an Olympus IX70 DeltaVision Spectris Image Deconvolution system, equipped with a temperature and atmospherically controlled stage. Images were deconvolved (10 cycles) using SoftWoRx Explorer Suite software.

[3] = system: HeLa cells; test: FACS cellular uptake of BODIPY conjugates in HeLa cells; type: cell-based, human; conditions: 1 μM of each compound for 0.5 hr; average of 2,000 cells; about 10-fold higher instrumental gain than 10T1/2
Procedure: as §1, §2

[4] = system: WT CHO-K1 cells; test: Competition of guanidinoneomycin construct uptake by model glycans; type: cell-based, Chinese hamster
[5] = system: MPS VII fibroblasts; test: [35S]glycosaminoglycan turnover, label-chase, MPS VII fibroblasts; type: cell-based, human; conditions: enzyme 2 hours, chase 24 hours
Procedure: To test whether internalized GUS was functionally localized in lysosomes, a label-chase format was used in which cells were incubated with ^35S-labeled sulfate for 24 hours to radiolabel the sulfated glycosaminoglycans. The medium was changed, and after 24 hours, the amount of [^35S]glycosaminoglycans that remained associated with the cells was quantitated. Normal and MPS fibroblasts were incubated in DMEM/F12 medium supplemented with 10% dialyzed fetal bovine serum in order to increase the radiospecific activity of added ^35S4. Cells were seeded in a 12-well plate, and at confluence, 50 μCi of Na[^35S]O4 (PerkinElmer) was added in 1 ml of fresh medium. After 24 hours, the cells were rinsed twice with PBS, exposed to GUS or α-iduronidase for 2 hours, rinsed twice, and then chased for 24 hours in complete growth medium. The cells were harvested with trypsin, centrifuged (500 g, 5 minutes), and washed once. The sedimented cells were then resuspended in 100 μl of RIPA buffer (Sigma) and counted by liquid scintillation spectrometry using Scintillator Ultima Gold XR (PerkinElmer).

`NC[C@H]1O[C@H](O[C@H]2[C@H](O)[C@@H](O[C@H]3O[C@H](CO)[C@@H](O)[C@H](N)[C@H]3O)[C@H](N)C[C@@H]2N)[C@H](N)C[C@@H]1O` [tobramycin, reference compound] was tested, and the “enhancement of cellular uptake upon guanidinylation” value ([1]; relative to autofluorescence, BODIPY conjugates, FIG. 3 and Table 1) was “approximately 10 fold”.

For `N=C(N)NC(=O)c1nc(Cl)c(N)nc1N` [amiloride], the “effect on internalization of fluorescent guanidinoneomycin conjugate” value [2] was “no effect”.

In the case of tobra-BODIPY [Tobra-BODIPY (1)], the “Mean Fluorescence Intensity of treated cells according to FACS, 10T1/2” value (from here on “Mean Fluorescence Intensity … to FACS, 10T1/2”) [1] is reported as 60, the “cellular uptake” value [1] is reported as “poor cellular uptakes” and the “Mean Fluorescence Intensity of treated cells according to FACS, HeLa” value (“Mean Fluorescence Intensity … HeLa” below) [3] is reported as 1,000.

neo-BODIPY [Neo-BODIPY (3)] was tested, and the “Mean Fluorescence Intensity … to FACS, 10T1/2” value [1] was 60, the “cellular uptake” value [1] was “poor cellular uptakes” and the “Mean Fluorescence Intensity … HeLa” value [3] was ~1,400^(e).

For “BODIPY-Cys(Arg)9 (CRRRRRRRRR; N-acetyl, C-amide, BODIPY label on Cys) [BODIPY-Cys (Arg)9 (5), common poly-Arg transduction peptide, reference compound]”, the “Mean Fluorescence Intensity, 10T1/2, in presence of 10 μM (6)” value ([1]; 0.5 μM BODIPY-Cys(Arg)9 + 10 μM guanidine-neomycin B (6), 1 hr) was 110, the “Mean Fluorescence Intensity, 10T1/2, in presence of 50 μM (6)” value ([1]; 0.5 μM BODIPY-Cys(Arg)9 + 50 μM guanidine-neomycin B (6), 1 hr) was 90 and the “Mean Fluorescence Intensity, 10T1/2, in presence of 200 μM (6)” value ([1]; 0.5 μM BODIPY-Cys(Arg)9 + 200 μM guanidine-neomycin B (6), 1 hr) was 70. The “Mean Fluorescence Intensity … to FACS, 10T1/2” value [1] was 280 and the “Mean Fluorescence Intensity … HeLa” value [3] was 2,000.

With “guanidino-tobra-BODIPY [Guanidino-Tobra-BODIPY (2)]” the “Mean Fluorescence Intensity … to FACS, 10T1/2” value [1] was 240, the “cellular uptake compared to poly-Arg peptide BODIPY-Cys(Arg)9” value [1] was “approximately the same transport efficiency” and the “Mean Fluorescence Intensity … HeLa” value [3] was 2,100.

For “dermatan sulfate [Dermatan sulfate, DS (G)]”, the “inhibition of cellular uptake of either construct (words)” value ([4]; listed as Dermatan sulfate) was “failed to inhibit” and the “inhibition of cellular uptake of either construct (words)” value ([4]; listed as dermatan sulfate) was “no significant inhibition”.

In the case of `OC[C@H]1O[C@@](CO)(O[C@H]2O[C@H](CO)[C@@H](O)[C@H](O)[C@H]2O)[C@@H](O)[C@@H]1O` [sucrose], the “effect on internalization of fluorescent guanidinoneomycin conjugate” value [2] is reported as “marked decrease in internalization”.

“guanidino-Neo-BODIPY [Guanidino-Neo-BODIPY (4)]” was tested, and the “Mean Fluorescence Intensity … to FACS, 10T1/2” value [1] was 430, the “cellular uptake compared to poly-Arg peptide BODIPY-Cys(Arg)9” value [1] was “better cellular uptake” and the “Mean Fluorescence Intensity … HeLa” value [3] was 7,900.

B1: AP-hGUS: hGUS treated with alkaline phosphatase (protein, UniProt P08236 23-651, looked up)
Beta-glucuronidase: LQGGMLYPQESPSRECKELDGLWSFRADFSDNRRRGFEEQWYRRPLWESGPTVDMPVPSSFNDISQDWRLRHFVGWVWYEREVILPERWTQDLRTRVVLRIGSAHSYAIVWVNGVDTLEHEGGYLPFEADISNLVQVGPLPSRLRITIAINNTLTPTTLPPGTIQYLTDTSKYPKGYFVQNTYFDFFNYAGLQRSVLLYTTPTTYIDDITVTTSVEQDSGLVNYQISVKGSNLFKLEVRLLDAENKVVANGTGTQGQLKVPGVSLWWPYLMHERPAYLYSLEVQLTAQTSLGPVSDFYTLPVGIRTVAVTKSQFLINGKPFYFHGVNKHEDADIRGKGFDWPLLVKDFNLLRWLGANAFRTSHYPYAEEVMQMCDRYGIVVIDECPGVGLALPQFFNNVSLHHHMQVMEEVVRRDKNHPAVVMWSVANEPASHLESAGYYLKMVIAHTKSLDPSRPVTFVSNSNYAADKGAPYVDVICLNSYYSWYHDYGHLELIQLQLATQFENWYKKYQKPIIQSEYGAETIAGFHQDPPLMFTEEYQKSLLEQYHLGLDQKRRKYVVGELIWNFADFMTEQSPTRVLGNKKGIFTRQRQPKSAAFLLRERYWKIANETRYPHSVAKSQCLENSLFT
modifications: dephosphorylated by alkaline phosphatase
For B1, the “ED50, [35S]glycosaminoglycan turnover” value [5] was ~300 mU.

B2: GNeo-AP-hGUS: GNeo conjugate of alkaline phosphatase-treated hGUS (conjugate, UniProt P08236 23-651, looked up)
Beta-glucuronidase: LQGGMLYPQESPSRECKELDGLWSFRADFSDNRRRGFEEQWYRRPLWESGPTVDMPVPSSFNDISQDWRLRHFVGWVWYEREVILPERWTQDLRTRVVLRIGSAHSYAIVWVNGVDTLEHEGGYLPFEADISNLVQVGPLPSRLRITIAINNTLTPTTLPPGTIQYLTDTSKYPKGYFVQNTYFDFFNYAGLQRSVLLYTTPTTYIDDITVTTSVEQDSGLVNYQISVKGSNLFKLEVRLLDAENKVVANGTGTQGQLKVPGVSLWWPYLMHERPAYLYSLEVQLTAQTSLGPVSDFYTLPVGIRTVAVTKSQFLINGKPFYFHGVNKHEDADIRGKGFDWPLLVKDFNLLRWLGANAFRTSHYPYAEEVMQMCDRYGIVVIDECPGVGLALPQFFNNVSLHHHMQVMEEVVRRDKNHPAVVMWSVANEPASHLESAGYYLKMVIAHTKSLDPSRPVTFVSNSNYAADKGAPYVDVICLNSYYSWYHDYGHLELIQLQLATQFENWYKKYQKPIIQSEYGAETIAGFHQDPPLMFTEEYQKSLLEQYHLGLDQKRRKYVVGELIWNFADFMTEQSPTRVLGNKKGIFTRQRQPKSAAFLLRERYWKIANETRYPHSVAKSQCLENSLFT
modifications: GNeo conjugate, dephosphorylated
B2 was tested, and the “ED50, [35S]glycosaminoglycan turnover” value [5] was ~10 mU.
